We go through six compounds from DBAASP.

Test systems include Cladosporium sp.; Cryptococcus neoformans; Escherichia coli SBS 363; Micrococcus luteus A270; Penicillium expansum; Escherichia coli UB1005.
Common to all, as to experiment: ≥ marks a high value that may be exact or a test limit, other limits are often not marked, values filed in µg/mL are converted to µM
Test [1] deals with Pseudomonas aeruginosa ATCC 27853.
Test [2] has as its system Escherichia coli ATCC 11229.
Test [3] concerns Klebsiella pneumoniae ATCC 13866.
In test [4] the test system is Staphylococcus aureus ATCC 25923.
The test system of test [5] is Staphylococcus aureus ATCC 29213.
The test system of test [6] is Staphylococcus aureus ATCC 33591.
Test [7] has as its system Staphylococcus epidermidis ATCC 12228.
Test [8] relates to Enterococcus faecalis ATCC 51299.
Test [9] concerns Escherichia coli ATCC 35218.
Test [10] has as its system Klebsiella pneumoniae ATCC 49472.
In test [11] the test system is Klebsiella pneumoniae ATCC BAA-2814.
Test [12] deals with Salmonella enterica subsp. enterica serovar Typhimurium ATCC 14028.
The subject of test [13] is Staphylococcus aureus ATCC 12600.
In test [14] the test system is Staphylococcus aureus ATCC BAA-2312.
Test [15] deals with Acinetobacter baumannii BCRC 14B0100.
Test [16] has as its system Escherichia coli ATCC 25922.
Test [17] relates to Aspergillus oryzae NBRC 100959.
For test [18], the system named is Candida viswanathii NBRC 10321.
In test [19] the test system is Escherichia coli NBRC 3972.
For test [20], the system named is Micrococcus luteus NBRC 3333.
Test [21] concerns Pseudomonas putida NBRC 100650.
Test [22] relates to Staphylococcus epidermidis NBRC 12993.
The test system of test [23] is Lacticaseibacillus rhamnosus 1.0385.
For test [24], the system named is Lacticaseibacillus rhamnosus 1.0386.
In test [25] the test system is Lacticaseibacillus rhamnosus 1.0911.
Test [26] concerns Lacticaseibacillus rhamnosus 1.0925.
Test [27] has as its system Lacticaseibacillus rhamnosus 7469.
The subject of test [28] is Lactiplantibacillus plantarum 8014.
For test [29], the system named is Staphylococcus aureus ATCC 43300.

In brackets after ≈: the same amount, converted by molar mass. Several values for one entry are separate records, joined by “and”; a condition that tells them apart may be missing. Equal values may be shown once.

Take `CSCC[C@H](NC(=O)CNC(=O)[C@H](Cc1ccccc1)NC(=O)[C@H](Cc1ccccc1)NC(=O)CNC(=O)[C@H](C)NC(=O)[C@H](C)NC(=O)[C@@H]1CCCN1C(=O)[C@H](C)N)C(=O)N[C@@H](CCCN=C(N)N)C(=O)O` [APAAGFFGMR]: the MIC against Cladosporium sp. is not below 164 µM; against Cryptococcus neoformans, not below 164 µM; in the test with Escherichia coli SBS 363, not below 82 µM; with Micrococcus luteus A270 it was not below 164 µM; against Penicillium expansum, not below 164 µM; in test [1] it was 164 µM and > 82 µM.
Consider `CC[C@H](C)[C@H](NC(=O)CN)C(=O)N[C@@H](C)C(=O)NCC(=O)N[C@@H](CC(C)C)C(=O)N[C@@H](CC(C)C)C(=O)N[C@@H](CCCN=C(N)N)C(=O)N[C@@H](CO)C(=O)N[C@@H](Cc1ccccc1)C(=O)N[C@H](C(=O)N[C@@H](CCCN=C(N)N)C(=O)N[C@@H](CCSC)C(=O)N[C@@H](CC(C)C)C(=O)N[C@@H](C)C(=O)N[C@@H](CCCCN)C(=O)N[C@H](C(=O)N[C@@H](CCSC)C(=O)NCC(=O)NCC(=O)O)[C@@H](C)CC)C(C)C` [GIAGLLRSFVRMLAKIMGG], for which the MIC in [2] was not below 32.2 µM; in test [3], not below 32.2 µM; in test [1] it was 8.04 µM (≈ 16 µg/mL); in [4] it was 32.2 µM (≈ 64 µg/mL); in test [5], 32.2 µM (≈ 64 µg/mL); in test [6] it was not below 64.3 µM. This compound also gave an MIC in test [7] of 32.2 µM (≈ 64 µg/mL).
Regarding `CC[C@H](C)[C@H](NC(=O)[C@H](CCC(N)=O)NC(=O)[C@H](CO)NC(=O)[C@H](C)NC(=O)[C@H](CC(C)C)NC(=O)[C@H](Cc1cnc[nH]1)NC(=O)[C@@H](NC(=O)[C@H](CC(C)C)NC(=O)[C@H](CC(C)C)NC(=O)CNC(=O)[C@H](CCCCN)NC(=O)CNC(=O)[C@H](C)NC(=O)CNC(=O)[C@H](CCCCN)NC(=O)[C@H](CC(C)C)NC(=O)[C@H](CC(C)C)NC(=O)[C@H](CC(=O)O)NC(=O)[C@H](CC(C)C)NC(=O)[C@H](CC(C)C)NC(=O)CN)[C@@H](C)O)C(N)=O` [GLLDLLKGAGKGLLTHLASQI], the MIC in [8] was not below 250 µM; in [9] it was not below 62.5 µM; in [10], not below 125 µM; in test [11], not below 125 µM; in test [12] it was 250 µM (≈ 529 µg/mL); in test [13] it was not below 250 µM. The MIC in test [14] was not below 250 µM.
As for `CC[C@H](C)[C@H](NC(=O)[C@H](CCCN=C(N)N)NC(=O)[C@H](CCC(N)=O)NC(=O)[C@@H](NC(=O)[C@@H](NC(=O)[C@H](CCCN=C(N)N)NC(=O)[C@H](CCCCN)NC(C)=O)[C@@H](C)CC)C(C)C)C(=O)N[C@@H](CCCCN)C(=O)N[C@@H](CC(=O)O)C(=O)N[C@@H](Cc1ccccc1)C(=O)N[C@@H](CC(C)C)C(=O)N[C@@H](CCCN=C(N)N)C(=O)N[C@@H](C)C(=O)NCC(=O)N1CCC[C@H]1C(=O)N[C@@H](CCCN=C(N)N)C(=O)N[C@@H](CCCN=C(N)N)C(=O)N[C@@H](Cc1c[nH]c2ccccc12)C(=O)N[C@@H](Cc1c[nH]c2ccccc12)C(=O)N[C@@H](CCCN=C(N)N)C(=O)N[C@@H](Cc1c[nH]c2ccccc12)C(N)=O` [KRIVQRIKDFLRAGPRRWWRW], the MIC in [15] was 0.708 µM and 1.42 µM; in test [16] it was 1.42 µM and 0.708 µM; in test [1], 0.708 µM and 1.42 µM; in test [4] it was 1.42 µM and 0.708 µM.
Turning to `CC[C@H](C)[C@H](NC(=O)[C@H](CCCCN)NC(=O)[C@@H](N)CCCN=C(N)N)C(=O)N[C@@H](CCCCN)C(=O)N[C@H](C(=O)N[C@@H](Cc1ccc(O)cc1)C(=O)N[C@@H](CC(C)C)C(=O)N[C@@H](CCCN=C(N)N)C(=O)N[C@@H](CCCN=C(N)N)C(=O)N[C@@H](CCSC)C(=O)N[C@@H](CCCCN)C(=O)O)C(C)C` [RKIKVYLRRMK], the MIC in test [17] was 8.38 µM (≈ 12.5 µg/mL); in [18] it was 8.38 µM (≈ 12.5 µg/mL); in [19], 8.38 µM (≈ 12.5 µg/mL); in test [20], 8.38 µM (≈ 12.5 µg/mL); in [21], not below 33.5 µM; in test [22], not below 33.5 µM.
As to `NC(=O)[C@H](CCCN=C(N)N)NC(=O)[C@H](CCCN=C(N)N)NC(=O)[C@H](Cc1c[nH]c2ccccc12)NC(=O)[C@H](CO)NC(=O)[C@H](Cc1c[nH]c2ccccc12)NC(=O)[C@H](Cc1c[nH]c2ccccc12)NC(=O)[C@H](Cc1c[nH]c2ccccc12)NC(=O)[C@H](CO)NC(=O)[C@H](Cc1c[nH]c2ccccc12)NC(=O)[C@H](CCCN=C(N)N)NC(=O)[C@@H](N)CCCN=C(N)N` [RRWSWWWSWRR], the MIC is 2 µM (≈ 3.49 µg/mL) against Escherichia coli UB1005; not below 64 µM in [23]; not below 64 µM in [24]; not below 64 µM in [25]; not below 64 µM in [26]; not below 64 µM in [27]. Also, the MIC in test [28] is not below 64 µM; in [1], 4 µM (≈ 6.99 µg/mL); in [29], 2 µM (≈ 3.49 µg/mL); in [7], 4 µM (≈ 6.99 µg/mL).
